Measurements published in ChEMBL document CHEMBL1153457, “Effects of structural analogues of the substrate and allosteric regulator of the human mitochondrial NAD(P)+-dependent malic enzyme” (Bioorg Med Chem, 2009).
Calls of active or inactive are those of the source. No cut-off for these calls is given here.

Legend:
Homo sapiens [1] = species: Homo sapiens; assay: Inhibition of human mitochondrial NADP-ME E59L mutant expressed in Escherichia coli XL-1 assessed as residual enzyme activity by spectrophotometry in absence of fumarate
Homo sapiens [2] = species: Homo sapiens; assay: Inhibition of human mitochondrial NADP-ME E59L mutant expressed in Escherichia coli XL-1 assessed as residual enzyme activity by spectrophotometry in presence of fumarate
Homo sapiens [3] = species: Homo sapiens; assay: Activation of human mitochondrial NADP-ME E59L mutant expressed in Escherichia coli XL-1 by spectrophotometry

| Compound | Activity (Homo sapiens [1]) | Activity (Homo sapiens [2]) | Activity (Homo sapiens [3]) |
| --- | --- | --- | --- |
| O=C(O)/C=C/CC(=O)O | Active | Active |  |
| O=C(O)/C=C\C(=O)O | Active | Active |  |
| O=C(O)CC(=O)O | Active | Active |  |
| O=C(O)/C=C/C(=O)O |  |  | inactive |
